Measured values reported in patent US8663607B2, “Ferrate(VI)-containing compositions and methods of using ferrate(VI)” (Battelle Memorial Institute, priority 2007, dated 2014).
Like-named read-outs stand apart in the source and are kept apart here.

How the values were obtained:
[1] = Stain removal from HAP disk, grape juice stain; details: disk A-4: grape juice stained disk treated the same way as P and Q (pH 8 SDS/HEPA buffer)
[2] = at 71° C.; pure (80-100%) or moderate purity (50-80%)
Description: The more demanding isothermal test conditions were chosen for the preliminary viability assessment testing. In this series of tests, a Blue M Electric Oven, Model OV-490A-3 (S/N OV-11311, BMI No. N-00154, 120V Single Phase, 38-260° C.), was used. The oven was set to maintain an air temperature of approximately 71.5° C. A mercury thermometer immersed in silicone oil was added to the oven for manual tracking of the temperature, and a HOBO model H08-002-02 external temperature logger (Onset Computer Corp., S/N 5948-9820) was used for automated temperature data acquisition. Four ˜1.0 g samples of K2FeO4 TG were transferred to clean 12 mL glass vials with Teflon-lined caps; these samples with purity from ˜75-93% were chosen specifically to represent a variety of initial purity values. Before closure, the headspace of each vial briefly was purged (˜20 sec at ˜250 cm^3 (STP)) with ultra-high purity (UHP) argon gas to minimize trapped moisture.
The samples were removed from the oven at 1, 2, 5, 7, 12, 27, 48, and 98 days. The purity of each sample was determined by the technique described in Section 3.2.1. Each vial was assayed three times at each sampling point in order to calculate standard deviation and provide an estimate of precision. When returning the vials to the isothermal oven, the headspace of each vial was purged briefly with UHP argon, as before.

[3] = Stain removal from HAP disk, coffee stain; details: disk A-6: coffee stained disk treated the same way as P and Q (pH 8 SDS/HEPA buffer)
Description: (§1) Oxidation resistant chelating buffer: 0.25M 1-Hydroxyethylidenediphosphonic acid (etridonic acid) (Dequest® 2010, Thermphos) (HEPA) was pH adjusted by microtitration with 10N NaOH. 1.28 g of 1-Hydroxyethylidenediphosphonic acid was to a 25-mL volumetric flask and brought to volume with HPDI water. The solution was transferred to a 50-mL beaker with a stir bar and pH adjusted using 10.04N NaOH, monitored with a calibrated pH meter. Aliquat 336® (Cognis) (also suitable is Aliquat 134®) (N-methyl-tri-(n-octyl)ammonium chloride), (N-methyl TOA) or “HEPA” chelating pH Buffer: 2.5-μL of N-methyl TOA was added to 5 mL of pH 7 HEPA buffer and sonicated for 1 minute. pH 7 Sodium Dodecyl Sulfate (SDS)/HEPA Buffer: 10 mg of SDS was added to 5 mL of pH 7 HEPA buffer and sonicated for 1 minute. pH 8 SDS/HEPA Buffer: 10 mg of SDS was added to 5 mL of pH 8 HEPA buffer and sonicated for 1 minute.
(§2) • A. A tea stained disk was placed into the bowl of the bowl of a watch glass and 100 μL of pH 7 HEPA buffer was pipetted onto the disk surface. 3.7 mg of potassium ferrate(VI) was added to the disk surface and mixed gently. […] The disk was rinsed at 10 minutes with HPDI water. […] 1 mL of pH 7 HEPA buffer was added followed by 9 mL of HPDI water. 9.7 mg of potassium ferrate(VI) was added. The tube was gently hand shaken for 10 minutes. The disk was removed and rinsed with HPDI water. […] 10 mg of potassium ferrate(VI) was added to 1 mL of pH 7 HEPA buffer in a 50 mL centrifuge tube. 9 mL HPDI water was added, and the solution was shaken for a few seconds followed by the addition of a tea stained HAP disk. The disk was removed at 10 minutes and rinsed with HPDI water. […] 1.3 mg of potassium ferrate(VI) added and mixed into the solution. […] 1.4 mg of potassium ferrate(VI) was added to the disk surface and mixed gently. […] The reaction was allowed to continue for 5 minutes. […] The disk was rinsed several times with HPDI water. 100 μL of pH 7 HEPA buffer was pipetted onto the disk surface and allowed to react for 5 minutes. […] 1 mg of potassium ferrate(VI) was added and mixed into the liquid.

[4] = Stain removal from HAP disk, Cran-Grape juice stain; details: disk A-5: Cran-Grape juice stain treated the same way as P and Q (pH 8 SDS/HEPA buffer)
Description: as §1, §2

[5] = Thermal stability of K2FeO4, cycling temperature profile (AR 70-38); type: physicochemical; details: cycling daily from 23° C. to 71° C. and back again
Description: The cycling temperature profile specified in AR 70-38 also was studied. An oven (Fisher Scientific model No. 48) was outfitted with a programmable temperature controller (Omega Engineering model CN3251) and a small fan in order to provide air circulation. Temperature data acquisition was performed using a HOBO data logger (Onset Computer Corp., model HTEA −39+123° C.). The temperature controller was programmed to meet the specifications of AR 70-38 Sec. II, Table 2-2 (Storage and Transit Conditions). Specifically, the oven was programmed to remain above 66° C. for at least 5 hrs and to reach a peak temperature of 71° C. for not more than 1 hr. The programmed parameters appear below in Table 1.

## potassium ferrate(VI)
[1]
  L* (lightness/darkness): 103.5
  a* (blue/red): −1.9
  appearance of disk after treatment: All stains were removed
  b* (yellow/green): −3.1
  reflectance of visible light at 450 nm: 111.244
  reflectance of visible light at 750 nm: 103.795
  ΔE (grape juice stain): 6.10
[2]
  stable to storage: at least 98 days
[3]
  L* (lightness/darkness): 101.9
  a* (blue/red): −2.1
  appearance of disk after treatment: All stains were removed
  b* (yellow/green): −2.8
  reflectance of visible light at 450 nm: 106.774
  reflectance of visible light at 750 nm: 99.233
  ΔE (coffee stain): 13.57
[4]
  L* (lightness/darkness): 107.3
  a* (blue/red): −3.2
  appearance of disk after treatment: All stains were removed
  b* (yellow/green): −5.5
  reflectance of visible light at 450 nm: 126.369
  reflectance of visible light at 750 nm: 108.805
  ΔE (cran-grape juice stain): 6.82
[5]
  stable to storage: at least 82 days
